Read-outs that look alike come from different tables or passages of the source.
Experiments:
[1] = target: B. pahangi TrxR; assay: B. pahangi TrxR enzyme assay, DTNB reduction (original data); type: biochemical, Brugia pahangi; settings: 20 nM enzyme, 3 mM DTNB; after 15 min preincubation; read-out: IC50 B. pahangi TrxR, substrate DTNB (original data)
Procedure: Enzymes were prepared in E. coli as described. Assays were performed at 25 °C in 0.1 M potassium phosphate (pH 7.4), 10 mM EDTA using 100 μM NADPH and 3 mM dithiobis(2-nitrobenzoic acid) (DTNB). […] The increase in A412 during the first 3 min was recorded upon DTNB addition. The reaction was done in triplicate.

[2] = tested on: Human TrxR; settings: 2 nM enzyme, 3 mM DTNB; steady state kinetic studies; read-out: IC50 Human TrxR, substrate DTNB; cited from earlier work
[3] = target: Human TrxR; parameters: method as in PMID 9685351; settings: 1.7 nM enzyme, steady state kinetic studies, read-out: Ki Human TrxR, substrate E. coli TrxS2, cited from earlier work
[4] = tested on: Human GR; settings: 1.5 nM enzyme, 1 mM GSSG; steady state kinetic studies; read-out: IC50 Human GR, substrate GSSG; cited from earlier work
[5] = target: human thioredoxin reductase (TrxR); parameters: method as in PMID 9685351; settings: cited from earlier work
[6] = tested on: S. mansoni; parameters: method as in PMID 17579510; settings: after multiple doses; cited from earlier work
[7] = tested on: L. major; settings: read-out: IC50 against L. major; cited from earlier work
[8] = tested on: L. amazonensis; settings: read-out: IC50 against L. amazonensis; cited from earlier work
[9] = target: L. infantum TR; settings: read-out: Ki L. infantum TR, substrate TS2; 40 nM enzyme, 50–400 µM TS2; steady state; cited from earlier work
[10] = tested on: mitochondrial TrxR2; parameters: method as in PMID 15458826; settings: 2 nM enzyme, 3 mM DTNB; steady state; read-out: IC50 TrxR, substrate DTNB (mitochondrial TrxR2 instead of cytosolic TrxR1); cited from earlier work
[11] = target: T1, S. mansoni TGR (Schistosoma mansoni, UniProt Q962Y6); parameters: method as in PMID 17579510; settings: 20 nM enzyme, 3 mM DTNB; after 15 min preincubation; read-out: IC50 S. mansoni TGR, substrate DTNB; cited from earlier work
T1 construct: made in house; host or cells: E. coli
T1 sequence (Q962Y6 1-598): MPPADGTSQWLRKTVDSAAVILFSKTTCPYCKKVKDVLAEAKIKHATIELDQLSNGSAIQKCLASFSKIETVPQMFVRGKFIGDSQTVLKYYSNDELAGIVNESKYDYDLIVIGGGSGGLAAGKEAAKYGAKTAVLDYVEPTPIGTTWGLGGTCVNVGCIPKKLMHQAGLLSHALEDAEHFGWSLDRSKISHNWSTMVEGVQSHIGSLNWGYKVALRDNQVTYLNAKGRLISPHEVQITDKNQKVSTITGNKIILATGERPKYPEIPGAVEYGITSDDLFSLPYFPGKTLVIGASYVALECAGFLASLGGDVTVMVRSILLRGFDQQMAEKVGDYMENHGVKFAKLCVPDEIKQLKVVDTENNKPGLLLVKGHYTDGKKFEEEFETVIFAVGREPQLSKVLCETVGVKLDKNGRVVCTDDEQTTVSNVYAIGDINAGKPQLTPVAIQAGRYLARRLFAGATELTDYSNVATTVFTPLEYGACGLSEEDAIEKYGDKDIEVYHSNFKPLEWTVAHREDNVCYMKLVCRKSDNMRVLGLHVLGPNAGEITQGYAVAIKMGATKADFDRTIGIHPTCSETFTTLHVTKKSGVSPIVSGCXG

[12] = target: T1, S. mansoni TGR; parameters: method as in PMID 17579510; settings: 20 nM enzyme, 100 µM GSSG; after 15 min preincubation; read-out: IC50 S. mansoni TGR, substrate GSSG; cited from earlier work
[13] = target: T1, S. mansoni TGR; parameters: method as in PMID 17579510; settings: 20 nM enzyme, 8 mM substrate; after 15 min preincubation; read-out: IC50 S. mansoni TGR, substrate HED + GSSG; cited from earlier work

With `CC(=O)OC[C@H]1O[C@@H]([S-])[C@H](OC(C)=O)[C@@H](OC(C)=O)[C@@H]1OC(C)=O.CCP(CC)CC.[Au+]` [Auranofin] as the compound, how does the IC50 [1] read?
Its IC50 is 0.5 nM.

And the IC50 [2]?
Its IC50 is 20 nM.

And the Ki ([3]; at 50 TrxS2)?
Its Ki is 2 nM.

What about the Ki ([3]; at 75 TrxS2) of the same compound?
Its Ki is 3 nM.

What about the IC50 [4] of the same compound?
The IC50 was 40000 nM.

And the Ki [5]?
Its Ki is 4 nM.

What about the “reduction of worm burdens in S. mansoni infected mice” value [6] of the same compound?
The value was ~ 60%.

What about the IC50 [7] of the same compound?
The IC50 was 70 nM.

And the IC50 [8]?
The IC50 was 270 nM.

And the Ki [9]?
Its Ki is 155 nM.

What does the source list for `O=C(O)CC([S-])C(=O)O.[Au+]` (centres unmarked) [Aurothiomalate]?
IC50 [10]: 280 nM; IC50 [11]: 90 nM; IC50 [12]: 50 nM; IC50 [13]: 50 nM
